Like-named read-outs stand apart in the source and are kept apart here.
Biological target: T1, human RXFP1 (Homo sapiens, UniProt Q9HBX9)
T1 sequence (Q9HBX9 1-757): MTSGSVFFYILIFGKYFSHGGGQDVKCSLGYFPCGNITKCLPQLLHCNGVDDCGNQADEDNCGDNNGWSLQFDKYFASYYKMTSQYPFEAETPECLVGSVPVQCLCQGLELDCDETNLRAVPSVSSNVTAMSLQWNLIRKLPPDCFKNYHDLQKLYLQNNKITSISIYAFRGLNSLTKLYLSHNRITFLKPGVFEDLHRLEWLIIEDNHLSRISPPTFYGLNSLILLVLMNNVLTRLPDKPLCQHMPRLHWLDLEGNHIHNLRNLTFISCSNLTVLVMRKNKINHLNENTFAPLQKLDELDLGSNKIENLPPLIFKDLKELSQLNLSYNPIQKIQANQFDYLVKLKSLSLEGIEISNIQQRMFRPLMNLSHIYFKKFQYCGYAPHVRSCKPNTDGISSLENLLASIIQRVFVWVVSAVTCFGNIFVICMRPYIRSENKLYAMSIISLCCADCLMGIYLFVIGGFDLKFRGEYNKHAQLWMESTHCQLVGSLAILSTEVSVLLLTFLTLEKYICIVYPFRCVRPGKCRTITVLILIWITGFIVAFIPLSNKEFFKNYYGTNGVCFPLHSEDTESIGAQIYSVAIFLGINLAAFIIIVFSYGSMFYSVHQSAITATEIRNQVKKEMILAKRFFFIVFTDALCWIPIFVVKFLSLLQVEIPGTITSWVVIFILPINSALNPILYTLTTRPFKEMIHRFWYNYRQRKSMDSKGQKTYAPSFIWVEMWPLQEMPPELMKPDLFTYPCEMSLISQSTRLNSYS
Experiment: RXFP1 Hu cAMP (Test A)
Type: cell-based
Parameters: expressed in transfected cells; host or cells: Jump-In T-REx CHO-K1 cells (ThermoFisher), induced with 10 ng/ml doxycycline for 24 h
Excerpt: To screen for modulators of hRXFP1, an assay identifying compounds that stimulate cAMP production via the Gs-coupled hRXFP1 receptor was used. cAMP HiRange HTRF kit (available from CisBio Bioassays, France; catalogue number 62AM6PEJ) was employed in large according to manufacturer's recommendations for detection of cAMP. The HTRF method is a competitive immunoassay between native cAMP produced by cells and cAMP labeled with the dye d2. The tracer binding is visualized with a cryptate labeled antibody for cAMP and the signal is thus inversely proportional to the amount of produced cAMP.
Cells: Jump-In™ T-REx™ CHO-K1 Cells (ThermoFisher) stably transfected with human RXFP1 was employed. Cells were induced to express human RXFP1 by treatment with 10 ng/ml doxycycline for 24 h. Cells were then cryopreserved for long term storage.
HTRF detection reagents: cAMP-d2 and anti-cAMP cryptate reconstituted according to CisBio instructions were diluted 1:40 in lysis buffer provided with the HTRF-kit.
3. 4 μL assay buffer with 1 mM IBMX (0.5 mM final concentration) to block phosphodiesterases was added with Multidrop Combi (ThermoFisher).
6. 4 μL cAMP-d2 in lysis buffer was added with Multidrop Combi.
7. 4 μL anti-cAMP cryptate in lysis buffer was added with Multidrop Combi
8. 2 h incubation at room temperature
Using a cAMP standard curve, HTRF data was converted to amount cAMP produced in the samples which was subsequentially used for calculation of concentration responses. Concentration response data were fitted with a four parameter logistic fit, the Hill equation. The results from the assay are reported in Table 36 as EC50 (μM) and Sinf (%).
Where the assay was run multiple times for the same compound, the geometric mean is reported.
Sinf is the fitted activity level, efficacy, at infinite concentration of test compound. To facilitate comparison of efficacy data, efficacy was normalized to % effect of the response stimulated by a saturating concentration of relaxin (1 nM). Where the assay was run multiple times for the same compound, the arithmetic mean is reported.

[1] = RXFP1 Hu cAMP, read-out: Test A EC50

COc1cc(F)c(-c2ccc(C(=O)O)cc2)cc1C(=O)N[C@H]1[C@@H](C(=O)Nc2cc(F)cc(S(F)(F)(F)(F)F)c2)[C@@H]2C=C[C@H]1C2 (racemic) [Example 298]
Test A Sinf (RXFP1 Hu cAMP): 82%
EC50 [1]: 910 nM

COc1cc(F)c(-c2ccc(C(=O)O)cc2)cc1C(=O)N[C@@H]1CCC[C@@H]1C(=O)Nc1cccc(S(=O)(=O)C(F)(F)F)c1 (racemic) [Example 299]
Test A Sinf (RXFP1 Hu cAMP): 81%

COc1cc(F)c(-c2cccc(C(=O)O)c2)cc1C(=O)N[C@@H]1CCC[C@@H]1C(=O)Nc1cccc(S(=O)(=O)C(F)(F)F)c1 (racemic) [Example 300]
Test A Sinf (RXFP1 Hu cAMP): 78%
EC50 [1]: 3900 nM

COc1cc(F)c(-c2ccc(C(=O)O)cc2)cc1C(=O)N[C@@H]1CC[C@@H]1C(=O)Nc1cccc(S(=O)(=O)C(F)(F)F)c1 (racemic) [Example 301]
Test A Sinf (RXFP1 Hu cAMP): 69%

COc1cc(F)c(-c2ccc(C(=O)O)cc2)cc1C(=O)N[C@@H]1[C@@H]2CC[C@@H](C2)[C@@H]1C(=O)Nc1cccc(S(=O)(=O)C(F)(F)F)c1 (racemic) [Example 303]
Test A Sinf (RXFP1 Hu cAMP): 114%
EC50 [1]: 260 nM

O=C(O)c1ccc(-c2cc(C(=O)N[C@H]3[C@@H](C(=O)Nc4cccc(S(=O)(=O)C(F)(F)F)c4)[C@@H]4C=C[C@H]3C4)ccc2F)cc1 (racemic) [Example 305, rac-2′-Fluoro-5′-(((1R,2R,3S,4S)-3-((3-((trifluoromethyl)sulfonyl)phenyl)carbamoyl)bicyclo[2.2.1]hept-5-en-2-yl)carbamoyl)-[1,1′-biphenyl]-4-carboxylic acid]
EC50 [1]: > 40000 nM

O=C(O)c1ccc(-c2cc(C(=O)N[C@H]3[C@@H](C(=O)Nc4cccc(S(=O)(=O)C(F)(F)F)c4)[C@@H]4C=C[C@H]3C4)c(F)cc2F)cc1 (racemic) [Example 306, rac-2′,4′-Difluoro-5′-(((1R,2R,3S,4S)-3-((3-((trifluoromethyl)sulfonyl)phenyl)carbamoyl)bicyclo[2.2.1]hept-5-en-2-yl)carbamoyl)-[1,1′-biphenyl]-4-carboxylic acid]
Test A Sinf (RXFP1 Hu cAMP): 73%

COc1cc(F)c(-c2ccc(C(=O)O)cc2)cc1C(=O)N[C@H]1[C@@H](C(=O)Nc2ccc(F)c(C(F)(F)F)c2)[C@@H]2C=C[C@H]1C2 (racemic) [Example 307, rac-2′-Fluoro-5′-(((1R,2R,3S,4S)-3-((4-fluoro-3-(trifluoromethyl)phenyl)carbamoyl)bicyclo[2.2.1]hept-5-en-2-yl)carbamoyl)-4′-methoxy-[1,1′-biphenyl]-4-carboxylic acid]
Test A Sinf (RXFP1 Hu cAMP): 90%
EC50 [1]: 180 nM

COc1cc(F)c(-c2ccc(C(=O)O)cc2)cc1C(=O)N[C@H]1[C@@H](C(=O)Nc2ccc(F)c(C#N)c2)[C@@H]2C=C[C@H]1C2 (racemic) [Example 309]
Test A Sinf (RXFP1 Hu cAMP): 80%
EC50 [1]: 4000 nM

COc1cc(F)c(-c2ccc(C(=O)O)cc2)cc1C(=O)N[C@H]1[C@@H](C(=O)Nc2cc(F)cc(C#N)c2)[C@@H]2C=C[C@H]1C2 (racemic) [Example 310]
EC50 [1]: > 40000 nM

COc1cc(F)c(-c2ccc(C(=O)O)cc2)cc1C(=O)N[C@H]1[C@@H](C(=O)N[C@H]2CCCN(S(=O)(=O)C(F)(F)F)C2)[C@@H]2C=C[C@H]1C2 (racemic) [Example 311]
Test A Sinf (RXFP1 Hu cAMP): 67%
EC50 [1]: 7700 nM

COc1cc(F)c(-c2ccc(C(=O)O)cc2)cc1C(=O)N[C@H]1[C@@H](C(=O)N[C@@H]2CCCN(S(=O)(=O)C(F)(F)F)C2)[C@@H]2C=C[C@H]1C2 (racemic) [Example 312]
Test A Sinf (RXFP1 Hu cAMP): 50%
EC50 [1]: 7500 nM

COc1cc(F)c(-c2ccc(O)c(C(=O)O)c2)cc1C(=O)N[C@@H]1[C@H]2CC[C@H](C2)[C@@H]1C(=O)Nc1cccc(S(=O)(=O)C(F)(F)F)c1 (racemic) [Example 316, rac-2′-Fluoro-4-hydroxy-4′-methoxy-5′-(((1R,2S,3R,4S)-3-((3-((trifluoromethyl)sulfonyl)phenyl)carbamoyl)bicyclo[2.2.1]heptan-2-yl)carbamoyl)-[1,1′-biphenyl]-3-carboxylic acid]
Test A Sinf (RXFP1 Hu cAMP): 107%
EC50 [1]: 320 nM

COc1cc(F)c(-c2cnc(CCC(=O)O)cn2)cc1C(=O)N[C@@H]1[C@@H]2CC[C@@H](C2)[C@@H]1C(=O)Nc1cccc(S(=O)(=O)C(F)(F)F)c1 (racemic) [Example 324, rac-3-(5-(2-Fluoro-4-methoxy-5-(((1R,2R,3S,4S)-3-((3-((trifluoromethyl)sulfonyl)phenyl)carbamoyl)bicyclo[2.2.1]heptan-2-yl)carbamoyl)phenyl)pyrazin-2-yl)propanoic acid]
Test A Sinf (RXFP1 Hu cAMP): 101%
EC50 [1]: 190 nM

COc1cc(F)c(O[C@H]2CC[C@@](C)(C(=O)O)CC2)cc1C(=O)N[C@H]1[C@@H](C(=O)NCC2(C)CCC2)[C@H]2CC[C@@H]1O2 (racemic) [Example 331, (1R,4s)-4-(2-Fluoro-4-methoxy-5-(((1SR,2SR,3RS,4RS)-3-(((1-methylcyclobutyl)methyl)carbamoyl)-7-oxabicyclo[2.2.1]heptan-2-yl)carbamoyl)phenoxy)-1-methylcyclohexane-1-carboxylic acid]
Test A Sinf (RXFP1 Hu cAMP): 90%
EC50 [1]: 260 nM

COc1cc(F)c(O[C@H]2CC[C@@](CO)(C(=O)O)CC2)cc1C(=O)N[C@H]1[C@@H](C(=O)NCC2(C)CCC2)[C@H]2CC[C@@H]1O2 (racemic) [Example 332]
Test A Sinf (RXFP1 Hu cAMP): 103%

COc1cc(C#N)c(O[C@H]2CC[C@@](C)(C(=O)O)CC2)cc1C(=O)N[C@H]1[C@@H](C(=O)NCC2(C)CCC2)[C@H]2CC[C@@H]1O2 (racemic) [Example 333]
Test A Sinf (RXFP1 Hu cAMP): 98%

COc1cc(C#N)c(O[C@H]2CC[C@@](C)(C(=O)O)CC2)cc1C(=O)N[C@H]1[C@@H](C(=O)NCC2(C)CCC2)[C@H]2CC[C@@H]1N2C(=O)OC(C)(C)C (racemic) [Example 334]
Test A Sinf (RXFP1 Hu cAMP): 96%
EC50 (Test A EC50, RXFP1 Hu cAMP): 4.3 nM

COc1cc(F)c(O[C@H]2CC[C@@](CO)(C(=O)O)CC2)cc1C(=O)N[C@@H]1C[C@@H](OC)C[C@@H]1C(=O)NCC(C)(C)C (racemic) [Example 338]
Test A Sinf (RXFP1 Hu cAMP): 104%
EC50 [1]: 4100 nM

COc1cc(F)c(O[C@H]2CC[C@@](C)(C(=O)O)CC2)cc1C(=O)N[C@@H]1COCC[C@@H]1C(=O)Nc1cccc(S(=O)(=O)C(F)(F)F)c1 (racemic) [Example 340]
Test A Sinf (RXFP1 Hu cAMP): 100%
EC50 [1]: 1800 nM

COc1cc(F)c(O[C@H]2CC[C@@](C)(C(=O)O)CC2)cc1C(=O)N[C@@H]1CCOC[C@@H]1C(=O)Nc1cccc(S(=O)(=O)C(F)(F)F)c1 (racemic) [Example 341]
Test A Sinf (RXFP1 Hu cAMP): 86%
EC50 [1]: 200 nM

COc1cc(F)c(O[C@H]2CC[C@@](C)(C(=O)O)CC2)cc1C(=O)N[C@@H]1COC[C@@H]1C(=O)Nc1cccc(S(=O)(=O)C(F)(F)F)c1 (racemic) [Example 342]
Test A Sinf (RXFP1 Hu cAMP): 132%
EC50 [1]: 550 nM

COc1cc(F)c(O[C@H]2CC[C@@](C)(C(=O)O)CC2)cc1C(=O)N[C@@H]1COC[C@@H]1C(=O)Nc1ccc(F)c(S(F)(F)(F)(F)F)c1 (racemic) [Example 344]
Test A Sinf (RXFP1 Hu cAMP): 93%
EC50 [1]: 34 nM

COc1cc(F)c(O[C@H]2CC[C@@](C)(C(=O)O)CC2)cc1C(=O)N[C@@H]1COC[C@@H]1C(=O)NCC(C)(C)C (racemic) [Example 345]
EC50 [1]: > 40000 nM

COc1cc(F)c(O[C@H]2CC[C@@](C)(C(=O)O)CC2)cc1C(=O)N[C@@H]1CC[C@@H]1C(=O)NCC(C)(C)C (racemic) [Example 346]
Test A Sinf (RXFP1 Hu cAMP): 96%

COc1cc(F)c(O[C@H]2CC[C@@](C)(C(=O)O)CC2)cc1C(=O)N[C@@H]1CC[C@@H]1C(=O)Nc1ccc(F)c(S(F)(F)(F)(F)F)c1 (racemic) [Example 347]
Test A Sinf (RXFP1 Hu cAMP): 115%
EC50 [1]: 6.4 nM
